Data as given in patent publication US20250295619A1, “Use of Salvianolic Acid E in the Preparation of Drugs Targeting Senescent Cells, Inhibiting Tumors or Extending Lifespan” (Shanghai Institute of Nutrition and Health, Chinese Academy …, priority 2024, published 2025).

Experiments:
PC3/PSC27 tumors [1] = experiment: DNA damage and apoptosis in tumors of treated mice; type: in vivo, mouse
From the text: To investigate mechanisms directly supporting this senescence-associated pattern with expression and reversal of SASP in MIT-administered mice, the inventors dissected tumors in animals treated with both drugs 7 days after the first SAE administration, and the time point of 7 days after administration was selected mainly because drug-resistant clones had not yet formed in cancer cells in the lesion at this time. […] As supporting evidence, when SAE was applied during treatment, caspase 3 cleavage activity was increased, which was a typical hallmark of apoptosis (FIG. 29).

PSC27 [2] = experiment: Flow cytometry apoptosis of PSC27; type: cell-based, human; conditions: SAE
From the text: Q2, distribution area of early apoptotic cells; Q3, distribution area of late apoptotic cells.

PC3/PSC27 tumors [3] = experiment: Disease-free survival of tumor-bearing NOD/SCID mice; type: in vivo, mouse; conditions: severe disease at tumor size ≥2000 mm3
From the text: When the tumor volume in the vehicle, MIT, SAE and MIT/SAE groups exceeds 2000 mm3, it is considered that severe disease has occurred, and the mice need to be killed in time and the tumor bearing status should be detected. ^, P>0.05; **, P<0.01.
Then the survival of animals in different drug-treated groups was compared, primarily in a time-prolonged manner to assess the consequences of tumor progression. In this preclinical cohort, animals were monitored for prostate tumor growth, and severe disease was judged to have occurred once the […] tumor burden in mice was prominent (size≥2000 mm3), which was a method used for assessing progression of tumors and other diseases in certain conditions.

PSC27 [4] = experiment: CCK8 survival of proliferating and senescent PSC27 cells; type: cell-based, human
Description: To cause cell damage, 50 μg/mL bleomycin (bleomycin, BLEO) was added to the culture medium when PSC27 cells grew to 80% (abbreviated as PSC27-CTRL). After 12 hours of drug treatment, the cells were simply washed 3 times with PBS, left in the culture medium for 7-10 days, and then the subsequent experiments were performed.
Pharmacodynamic analysis was conducted on an organic chemical drug library (TOPSCIENCE) with a total of 1470 small molecule compounds, mostly derived from medicinal plants and had anti-senescence potential. Each product was diluted to a 96-well plate according to a certain concentration gradient, and the density was 5000 cells per well. The medium uses DMEM, and the working concentration of natural product (or compound) is generally controlled at […] to 1 mM. After 3-7 days of drug treatment, cell proliferation was measured with CCK-8 Cell Counting Kit (based on WST-8 principle, Vazyme), and cell apoptosis activity was determined with Caspase 3/7 Activity Kit (Promega).

[5] = test system: senescent cells in tumor tissue; experiment: SA-β-Gal staining of tumor tissues of PC3/PSC27 tumor-bearing mice; type: in vivo, mouse; conditions: SAE with MIT
Description: Representative pictures after SA-β-Gal staining. Scale bar, 100 μm.
In a preclinical treatment trial, subcutaneously transplanted mice were fed with a standard experimental diet, after 2 weeks chemotherapy drugs mitoxantrone (MIT, dose: 0.2 mg/kg) and/or SAE (500 μl, dose: 10 mg/kg) via intraperitoneal administration. The time points were: the former was administrated on the first day of the 3rd, 5th and 7th weeks, and the latter was administrated on the first day of the 5th and 7th weeks. A total of 3 cycles of MIT administration were carried out throughout the course of treatment, and each cycle lasted for 2 weeks. After the course of treatment, mouse tumors were harvested for volume measurement and histological analysis. Each mouse cumulatively received 0.6 mg/kg body weight of MIT and 30 mg/kg body weight of SAE. In order to cause systemic expression of SASP factors induced by chemotherapy, MIT was administered to mice through intravenous infusion according to the above steps and sequence, but the dose was reduced to 0.1 mg/kg body weight/each time (the cumulative dose of MIT received in the whole course of treatment was 0.3 mg/kg body weight) to reduce drug-related toxicity. The chemotherapy experiment ended at the end of the 8th week, and the mice were dissected immediately after sacrifice, and the xenograft tumors were collected and used for pathological system analysis.

PSC27 [6] = experiment: Caspase 3/7 apoptosis detection in senescent PSC27 cells (IncuCyte); type: cell-based, human; conditions: 200 μM SAE
Description: PSC27 cells gradually entered the senescent stage after being treated with BLEO for 12 hours under culture conditions. 200 μM SAE was added to the medium of senescent cells starting from day 7, NucLight Rapid Red reagent was used to label the cells and caspase 3/7 reagent (IncuCyte) was used for apoptosis detection. Caspase 3/7 activity was detected every 4 hours (n=3).
Statistical differences are obtained by two-way ANOVA (Turkey'test).
PSC27 cells were plated in a 96-well dish, and the cells were induced to senescence under 50 μg/ml of BLEO treatment. SAE and ABT263 were added at concentrations of 200 μM and 1.25 μM, respectively. Cell culture medium was supplemented with Incucyte Nuclight fast Red Reagent (Essen Bioscience) and Incucyte C-3/7 Apoptosis Reagent (Essen Bioscience). Representative field of view was selected to take pictures.

O=C(/C=C/c1ccc(O)c(O)c1/C(=C\c1ccc(O)c(O)c1)C(=O)O[C@H](Cc1ccc(O)c(O)c1)C(=O)O)O[C@H](Cc1ccc(O)c(O)c1)C(=O)O [SAE, salvianolic acid E]
indices of DNA damage or apoptosis (PC3/PSC27 tumors [1]; MIT-treated animals administered with SAE): significantly enhanced | caspase 3 cleavage activity (PC3/PSC27 tumors [1]; SAE applied during treatment): significantly increased | degree of DNA damage and apoptosis (PC3/PSC27 tumors [1]; single agent compared with placebo, 7 days after first SAE administration): could not induce DNA damage or cause apoptosis | change of proliferating cells (PSC27 [2]): not obvious | proportion of apoptosis of senescent PSC27 cells (PSC27 [2]): significantly increased | viability of senescent PSC27 cells (PSC27 [2]): significantly reduced | median survival of tumor-bearing mice (PC3/PSC27 tumors [3]): only a marginal extension of survival | percentage of surviving senescent cells (PSC27 [4]; SAE 2000 μM): approximately 10% | survival of proliferating cells (PSC27 [4]; SAE 3000 μM): not significantly reduced | concentration from which significant death of senescent cells is induced (PSC27 [4]; vs control proliferating cells): 200 µM | senescent cells in the lesions of animals treated with chemotherapeutic drugs after SAE administration [5]: essentially depleted most senescent cells | caspase-3/7 activity: apoptosis of senescent cells (PSC27 [6]): caused apoptosis of senescent cells | time after addition of SAE from which senescent and control group differ statistically (PSC27 [6]; caspase 3/7 activity): ≥ 16 h
